Measurements taken from PubChem BioAssay AID248 (DTP/NCI, 2004).
“And” between values parts separate entries of the source, which are not always exact repeats. Equal values may be shown once. Toxic doses and inconclusive results are not listed.

Tested on: L1210 leukemia ip in BDF1 mice, survival T/C
Assay: NCI In Vivo Anticancer Drug Screen. Data for tumor model L1210 Leukemia (intraperitoneal) in B6D2F1 (BDF1) mice
Details: endpoint: mean survival time, higher = longer survival
How it was run: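 Survival endpoint. Drug-treated group vs vehicle group, expressed as T divided by C. Tumor passaged by transplantation.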

[1] = dose: 100.0 mg/kg/injection, schedule: Q01DX001 (ip), vehicle: saline
[2] = dose: 100.0 mg/kg/injection, schedule: Q01DX009 (ip), vehicle: saline
[3] = dose: 200.0 mg/kg/injection, schedule: Q01DX001 (ip), vehicle: saline
[4] = dose: 12.5 mg/kg/injection, schedule: Q01DX001 (ip), vehicle: saline
[5] = dose: 25.0 mg/kg/injection, schedule: Q01DX001 (ip), vehicle: saline
[6] = dose: 50.0 mg/kg/injection, schedule: Q01DX001 (ip), vehicle: saline
[7] = dose: 400.0 mg/kg/injection, schedule: Q01DX001 (ip), vehicle: saline
[8] = dose: 100.0 mg/kg/injection, schedule: Q04DX002 (ip), vehicle: saline with Tween-80
[9] = dose: 200.0 mg/kg/injection, schedule: Q04DX002 (ip), vehicle: saline with Tween-80
[10] = dose: 400.0 mg/kg/injection, schedule: Q04DX002 (ip), vehicle: saline with Tween-80
[11] = dose: 200.0 mg/kg/injection, schedule: Q01DX009 (ip), vehicle: saline
[12] = dose: 100.0 mg/kg/injection, schedule: Q04DX002 (ip), vehicle: Klucel (hydroxypropylcellulose) (HPC)
[13] = dose: 200.0 mg/kg/injection, schedule: Q04DX002 (ip), vehicle: Klucel (hydroxypropylcellulose) (HPC)
[14] = dose: 400.0 mg/kg/injection, schedule: Q04DX002 (ip), vehicle: Klucel (hydroxypropylcellulose) (HPC)
[15] = dose: 100.0 mg/kg/injection, schedule: Q04DX003 (ip), vehicle: saline
[16] = dose: 200.0 mg/kg/injection, schedule: Q04DX003 (ip), vehicle: saline
[17] = dose: 100.0 mg/kg/injection, schedule: Q04DX002 (ip), vehicle: saline

In the case of `CCC1CN1P(=O)(N(CC)CC)N1CC1CC` (stereo unspecified), the T/C (dose: 29.0 mg/kg/injection, schedule: Q01DX015 (ip), vehicle: saline) is reported as 100 % of control, the T/C (dose: 44.0 mg/kg/injection, schedule: Q01DX015 (ip), vehicle: saline) is reported as 105 % of control and the T/C (dose: 66.0 mg/kg/injection, schedule: Q01DX015 (ip), vehicle: saline) is reported as 109 % of control. The T/C (dose: 89.0 mg/kg/injection, schedule: Q01DX001 (ip), vehicle: saline) was 111 % of control, the T/C [1] was 103 % of control and the T/C [2] was 107 % of control. The T/C (dose: 100.0 mg/kg/injection, schedule: Q01DX015 (ip), vehicle: saline) was 110 % of control, the T/C (dose: 133.0 mg/kg/injection, schedule: Q01DX001 (ip), vehicle: saline) was 119 % of control and the T/C (dose: 150.0 mg/kg/injection, schedule: Q01DX009 (ip), vehicle: saline) was 107 % of control. For the same molecule, the T/C [3] was 121 % of control.
With `CCOC(=O)C(N)CCl` (stereo unspecified) the T/C (dose: 6.25 mg/kg/injection, schedule: Q01DX001 (ip), vehicle: saline) was 100 % of control, the T/C [4] was 101 % of control and the T/C [5] was 101 % of control. For the same molecule, the T/C [6] was 99 % of control, the T/C [1] was 97 % of control and the T/C [3] was 95 % of control.
In the case of `CCN(CC)CCC(=O)OC`, the T/C [6] is reported as 97 % of control, the T/C [1] is reported as 100 % of control and the T/C [3] is reported as 100 % of control. The T/C [7] was 97 % of control.
In the case of `O=NN(CCCCl)C(=O)NC1CCCCC1`, the T/C [4] is reported as 103 % of control, the T/C [5] is reported as 108 % of control and the T/C [6] is reported as 103 % of control. The T/C [1] was 103 % of control, the T/C [3] was 102 % of control and the T/C (dose: 300.0 mg/kg/injection, schedule: Q01DX001 (ip), vehicle: saline) was 106 % of control. For the same molecule, the T/C [7] was 110 % of control, the T/C (dose: 500.0 mg/kg/injection, schedule: Q01DX001 (ip), vehicle: saline) was 100 % of control and the T/C (dose: 600.0 mg/kg/injection, schedule: Q01DX001 (ip), vehicle: saline) was 106 % of control. The T/C (dose: 800.0 mg/kg/injection, schedule: Q01DX001 (ip), vehicle: saline) was 112 % of control and the T/C (dose: 1000.0 mg/kg/injection, schedule: Q01DX001 (ip), vehicle: saline) was 103 % of control.
With `O=C(O)COc1ccc(Cl)cc1CC(=O)O` the T/C (dose: 50.0 mg/kg/injection, schedule: Q04DX002 (ip), vehicle: saline with Tween-80) was 99 % of control, the T/C [8] was 100 % of control and 105 % of control and the T/C [9] was 99 % of control and 103 % of control. For the same molecule, the T/C [10] was 103 % of control.
In the case of `Cc1ccc(C)c(CNC(=O)C2CCCCC2C(=O)O)c1` (stereo unspecified), the T/C (dose: 100.0 mg/kg/injection, schedule: Q01DX009 (ip), vehicle: saline with Tween-80) is reported as 101 % of control, the T/C (dose: 200.0 mg/kg/injection, schedule: Q01DX009 (ip), vehicle: saline with Tween-80) is reported as 112 % of control and the T/C (dose: 400.0 mg/kg/injection, schedule: Q01DX009 (ip), vehicle: saline with Tween-80) is reported as 109 % of control.
For `COc1ccc(C(SCC(N)C(=O)O)(c2ccccc2)c2ccccc2)cc1` (stereo unspecified), the T/C (dose: 7.4 mg/kg/injection, schedule: Q01DX009 (ip), vehicle: saline) was 122 % of control, the T/C (dose: 25.0 mg/kg/injection, schedule: Q01DX009 (ip), vehicle: saline) was 166 % of control and the T/C (dose: 50.0 mg/kg/injection, schedule: Q01DX009 (ip), vehicle: saline) was 183 % of control. For the same molecule, the T/C [2] was 100 % of control.
For `CC(=O)C1C(N2CC2)CC2C3CCC4=CC(=O)CCC4(C)C3CCC21C` (stereo unspecified), the T/C (dose: 50.0 mg/kg/injection, schedule: Q01DX001 (sc), vehicle: steriod suspending solution) was 101 % of control, the T/C (dose: 100.0 mg/kg/injection, schedule: Q01DX001 (sc), vehicle: steriod suspending solution) was 104 % of control and the T/C (dose: 200.0 mg/kg/injection, schedule: Q01DX001 (sc), vehicle: steriod suspending solution) was 101 % of control.
`Cn1cnc(N)c1C(=N)[Se]` was tested, and the T/C (dose: 6.25 mg/kg/injection, schedule: Q01DX009 (ip), vehicle: water) was 86 % of control, the T/C (dose: 12.5 mg/kg/injection, schedule: Q04DX003 (ip), vehicle: water) was 108 % of control and the T/C (dose: 25.0 mg/kg/injection, schedule: Q04DX003 (ip), vehicle: water) was 95 % of control.
For `CN(C)c1nn2c(-c3ccccc3)nnc2o1`, the T/C [2] was 94 % of control, the T/C [11] was 102 % of control and the T/C (dose: 400.0 mg/kg/injection, schedule: Q01DX009 (ip), vehicle: saline) was 100 % of control.
With `CCc1cc2oc(C)c(C)c2c(N=Nc2cccc([N+](=O)[O-])c2)c1O` the T/C [12] was 96 % of control, the T/C [13] was 96 % of control and the T/C [14] was 93 % of control.
With `CC(=O)N(C)c1ccc(S(=O)(=O)F)cc1` the T/C (dose: 100.0 mg/kg/injection, schedule: Q01DX001 (ip), vehicle: Klucel (hydroxypropylcellulose) (HPC)) was 103 % of control and the T/C (dose: 200.0 mg/kg/injection, schedule: Q01DX001 (ip), vehicle: Klucel (hydroxypropylcellulose) (HPC)) was 103 % of control.
`Cn1c(=O)c2c(ncn2CC[n+]2cccc(C(N)=O)c2)n(C)c1=O` was tested, and the T/C [15] was 101 % of control and the T/C [16] was 97 % of control.
With `CC(c1ccccc1)n1cncc1C(=O)N1CCOCC1` (stereo unspecified) the T/C [12] was 104 % of control, the T/C [13] was 97 % of control and the T/C [14] was 123 % of control.
For `O=S(=O)(c1ccc(N=NN2CCCC2)cc1)N(CCCl)CCCl`, the T/C [8] was 101 % of control, the T/C [9] was 101 % of control and the T/C [10] was 108 % of control.
With `CCOC(=O)c1ccc2c(c1)nc1c3cccc4cccc(c(=O)n21)c43` the T/C (dose: 100.0 mg/kg/injection, schedule: Q04DX003 (ip), vehicle: saline with Tween-80) was 86 % of control, the T/C (dose: 200.0 mg/kg/injection, schedule: Q04DX003 (ip), vehicle: saline with Tween-80) was 92 % of control and the T/C (dose: 400.0 mg/kg/injection, schedule: Q04DX003 (ip), vehicle: saline with Tween-80) was 98 % of control.
For `C[n+]1csc2ccccc21`, the T/C [1] was 108 % of control, the T/C [3] was 103 % of control and the T/C [7] was 103 % of control.
`Nc1ccc(SS(N)(=O)=O)cc1` was tested, and the T/C [1] was 98 % of control and the T/C [3] was 98 % of control.
In the case of `CCC(N)Cc1ccc(OC)c(OC)c1` (stereo unspecified), the T/C [2] is reported as 98 % of control, the T/C [15] is reported as 93 % of control and the T/C [11] is reported as 98 % of control. For the same molecule, the T/C [16] was 97 % of control.
`CC(C)(N)CCC(C)(C)NCCCN` was tested, and the T/C (dose: 100.0 mg/kg/injection, schedule: Q01DX009 (ip), vehicle: water) was 95 % of control, the T/C (dose: 100.0 mg/kg/injection, schedule: Q04DX003 (ip), vehicle: water) was 100 % of control and the T/C (dose: 200.0 mg/kg/injection, schedule: Q01DX009 (ip), vehicle: water) was 98 % of control. The T/C (dose: 200.0 mg/kg/injection, schedule: Q04DX003 (ip), vehicle: water) was 106 % of control and the T/C (dose: 400.0 mg/kg/injection, schedule: Q04DX003 (ip), vehicle: water) was 97 % of control.
`CCN(CC)CC[n+]1ccccc1` was tested, and the T/C [17] was 93 % of control and the T/C (dose: 200.0 mg/kg/injection, schedule: Q04DX002 (ip), vehicle: saline) was 100 % of control.
For `CC(C)CN(CC(C)C)/N=C/c1cc([N+](=O)[O-])ccc1O`, the T/C [8] was 97 % of control, the T/C [9] was 91 % of control and the T/C [10] was 87 % of control.
In the case of `S=P(NC1CCCCC1)(N1CC1)N1CC1`, the T/C (dose: 5.0 mg/kg/injection, schedule: Q01DX Z (ip), vehicle: carboxymethylcellulose (CMC)) is reported as 122 % of control and the T/C (dose: 20.0 mg/kg/injection, schedule: Q01DX Z (ip), vehicle: carboxymethylcellulose (CMC)) is reported as 101 % of control.
In the case of `CC(C)N(CCC(=O)CC12CC3CC(CC(C3)C1)C2)C(C)C`, the T/C (dose: 25.0 mg/kg/injection, schedule: Q04DX002 (ip), vehicle: saline) is reported as 92 % of control, the T/C (dose: 50.0 mg/kg/injection, schedule: Q04DX002 (ip), vehicle: saline) is reported as 98 % of control and the T/C [17] is reported as 95 % of control and 97 % of control.
`c1ccc(CNc2cnccn2)cc1` was tested, and the T/C [1] was 105 % of control and the T/C [3] was 105 % of control.
`CCCCCCCCCCCCOC(=O)NCCCl` was tested, and the T/C (dose: 100.0 mg/kg/injection, schedule: Q01DX001 (ip), vehicle: saline with Tween-80) was 103 % of control, the T/C (dose: 200.0 mg/kg/injection, schedule: Q01DX001 (ip), vehicle: saline with Tween-80) was 102 % of control and the T/C (dose: 400.0 mg/kg/injection, schedule: Q01DX001 (ip), vehicle: saline with Tween-80) was 103 % of control.
